Key:
[1] = test system: heat shock protein of 70 kDa; experiment: Induction of heat shock protein of 70 kDa in HL-60 cells (SDS-PAGE and blotting); format: cell-based, human; conditions: HL-60 cells, as Table 1
Procedure: (1) An RPMI 1640 medium (5 ml) containing 10% of fetal bovine serum which contained 2×10^5 cells/ml of human promyelocytic leukemia cells HL-60 (ATCC CCL-240) was placed in each well of a six-well plate, incubated at 37° C. for 24 hours in the presence of 5% of CO2, then the cyclopentenone described in the referential example L was added thereto to make its final concentration 0, 10, 20, 30, 40, 50, or 100 μM and the incubation was further continued for eight hours more.
After completion of the incubation, cell numbers were counted and the cells were recovered by centrifugation and washed with phosphate-buffered saline (PBS) to prepare cyclopentenone-treated cells. In the meanwhile, cells which were heated at 45° C. for ten minutes followed by subjecting to the same incubation were prepared as well.
The cells treated as such were subjected to an SDS-polyacrylamid gel electrophoresis (SDS-PAGE) by a method mentioned in “Molecular Cloning” [Cold Spring Harbor Laboratory Press, (1989)]. The treated cells were suspended in an SDS-PAGE sample buffer to make the concentration 2.5×10^6 cells/ml, the resulting cell suspension was treated at 100° C. for ten minutes and each 5 μl thereof was applied to two sheets of SDS-PAGE gels (5% stacking gel; 10% separation gel) to conduct anelectrophoresis. One of the gels was Coomassie stained while another gel was subjected to a blotting to a polyvinylidene difluoride transfer membrane (Immobilon™, manufactured by Millipore, catalog no. IPVH000-10). The membrane was subjected to a blocking at 4° C. for one night with Block Ace (manufactured by Dainippon Pharmaceutical; catalog no. UK-B25).
The blocked membrane was made to react with monoclonal antibody HSP 72/73 (Ab-1) (manufactured by Oncogene Research Products, catalog no. HSP01) which would specifically react with heat-induced heat shock protein of 70 kDa and washed with TBS containing 0.05% of Tween 20 followed by further washing with TBS. After that, it was made to react with peroxidase-compounded secondary antibody HRP-Rabbit Anti-Mouse IgG (H+L) (manufactured by Zymed Laboratories, catalog no. 61-6520) and washed by the same manner as in the above operation. The membranes which were treated with primary and secondary antibodies as such were made to react with Renaissance™ (a chemiluminor reagent manufactured by Dupont NEN, catalog no. NEL-100) and photosensitized with an X-ray film to confirm the induction of heat shock protein of 70 kDa.
The result was that, by addition of cyclopentenone (20 to 30 μM), induction of heat shock protein of 70 kDa which is almost same as heat-treated at 45° C. for 10 minutes was confirmed. In Table 1, “+” indicates degree of intensity of induction and the more the numbers of “+”, the more the intensity of induction. Incidentally, “−” means that no induction was noted and “±” means the induction was slight.

[2] = test system: Ad5 dlX [an adenovirus]; experiment: Adenovirus hexon protein in HeLa cells treated with cyclopentenone before infection; format: cell-based; conditions: Examples 2-(2)~(6)
Procedure: After that, the cells were washed with the DMEM containing 5% of fetal bovine serum, then the DMEM containing 5% of fetal bovine serum which contained Ad5 dlX [an adenovirus; Saito, etal.; Journal ofVirology, volume 54, pages 711-719 (1985)] was added to the cells so that the cells were infected therewith and incubation was conducted for 20 hours. […] The medium was discarded, 1 ml of 10% trichloroacetic acid was added to each of the wells and the cells were recovered by a scraper.
Then SDS-PAGE and blotting of the treated cells obtained hereinabove were conducted by the method of Example 1 to detect the expression of hexon proteins of the adenovirus. Incidentally, anti-adenovirus hexon antibody (AB 1056; manufactured by Chemicon International Inc.) was used as the primary antibody.

[3] = test system: carcinogenesis caused by a two-stage carcinogenesis on skin; experiment: Two-stage (DMBA/TPA) carcinogenesis on skin of mice; format: in vivo, mice of ICR strain; conditions: mouse, in vivo
Procedure: Hair on the back of mice of ICR strain (purchased from Nippon SLC; seven weeks age; female) was shaved and DMBA (dimethylbenzanthracene) as an initiator in a form of a solution in acetone was applied thereto at the dose of 50 μg/mouse.
Thus, FIG. 5 is a graph showing the anti-carcinogenic action of the cyclopentenone in which ordinate is a carcinogenic rate while abscissa is time (weeks). In the graph, open triangles, black triangles and open circles stand for a group treated with 2.5 mg of the cyclopentenone per mouse (12 mice in total), a group treated with 0.8 mg of the cyclopentenone per mouse (11 mice in total) and a control group (12 mice in total), respectively.

[4] = test system: vesicular stomatitis virus; conditions: cited from earlier work
[5] = test system: Sendai virus; conditions: cited from earlier work

| Structure (SMILES) | induction of heat shock protein of 70 kDa, compared with the cyclopentenone [1] | antiviral activity to adenovirus, compared with the cyclopentenone [2] | anti-promoter action in two-stage chemical carcinogenesis, compared with the cyclopentenone [3] | also measured |
| --- | --- | --- | --- | --- |
| O=C1C=C[C@H](O)[C@H]1O (single isomer, unassigned) [(+)-cyclopentenone] | Same results | Same results | same result |  |
| O=C1C=C[C@@H](O)[C@@H]1O (single isomer, unassigned) [(−)-cyclopentenone] | Same results | Same results | same result |  |
| O=C1C=CCC1 [2-cyclopenten-1-one] |  |  |  | concentration required for inducing the HSP70 [4]: several hundred; synthesis of HSP70 [4]: induces; synthesis of vesicular stomatitis virus protein [4]: inhibits |
| CCCCC[C@H](O)/C=C/[C@H]1C=CC(=O)[C@@H]1CCCCCCC(=O)O [prostaglandin Al, prostaglandin A1] |  |  |  | synthesis of HSP70 and HSP90 ([5]; animal cells infected with Sendai virus): induced; synthesis of virus protein ([5]; during the synthesis of HSP70 is induced): inhibited |

Source: patent US6518317B1, “Antiviral agents” (priority 1997, dated 2003)
